Measured values: US20250236608A1, “EGFR INHIBITORS” (Blueprint Medicines Corporation, priority 2022, published 2025)

Key:
[1] = molecular target: EGFR (d746-750) (Homo sapiens (Human), UniProt P00533, DEL746-750); experiment: Biochemical EGFR inhibition assay, EGFR (d746-750); conditions: Caliper mobility shift; 1.0 mM ATP or ATP Km; read-out: Enz EGFR_Exon19-del746-750 IC50
[2] = molecular target: pEGFR (Tyr1068) in PC-9 cells (Ex19Del) (Homo sapiens (Human), UniProt P00533, DEL746-750); experiment: PC-9 pEGFR AlphaLISA assay; type: cell-based; conditions: 4 hours incubation, p-EGFR (Tyr1068) AlphaLISA, read-out: Ext pEGFR_PC-9 Ex19Del IC50
In short: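 Phospho-EGFR (Tyr1068) was quantified by AlphaLISA SureFire Ultra in lysates of PC-9 cells exposed for 4 h to compound (4-fold, 10-point dilutions).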

[3] = molecular target: EGFR L858R (Homo sapiens (Human), UniProt P00533, L858R); experiment: Biochemical EGFR inhibition assay, EGFR L858R; conditions: Caliper mobility shift; 1.0 mM ATP or ATP Km; read-out: Enz EGFR_L858R IC50
Chain of EGFR L858R (P00533 25-1210 L858R): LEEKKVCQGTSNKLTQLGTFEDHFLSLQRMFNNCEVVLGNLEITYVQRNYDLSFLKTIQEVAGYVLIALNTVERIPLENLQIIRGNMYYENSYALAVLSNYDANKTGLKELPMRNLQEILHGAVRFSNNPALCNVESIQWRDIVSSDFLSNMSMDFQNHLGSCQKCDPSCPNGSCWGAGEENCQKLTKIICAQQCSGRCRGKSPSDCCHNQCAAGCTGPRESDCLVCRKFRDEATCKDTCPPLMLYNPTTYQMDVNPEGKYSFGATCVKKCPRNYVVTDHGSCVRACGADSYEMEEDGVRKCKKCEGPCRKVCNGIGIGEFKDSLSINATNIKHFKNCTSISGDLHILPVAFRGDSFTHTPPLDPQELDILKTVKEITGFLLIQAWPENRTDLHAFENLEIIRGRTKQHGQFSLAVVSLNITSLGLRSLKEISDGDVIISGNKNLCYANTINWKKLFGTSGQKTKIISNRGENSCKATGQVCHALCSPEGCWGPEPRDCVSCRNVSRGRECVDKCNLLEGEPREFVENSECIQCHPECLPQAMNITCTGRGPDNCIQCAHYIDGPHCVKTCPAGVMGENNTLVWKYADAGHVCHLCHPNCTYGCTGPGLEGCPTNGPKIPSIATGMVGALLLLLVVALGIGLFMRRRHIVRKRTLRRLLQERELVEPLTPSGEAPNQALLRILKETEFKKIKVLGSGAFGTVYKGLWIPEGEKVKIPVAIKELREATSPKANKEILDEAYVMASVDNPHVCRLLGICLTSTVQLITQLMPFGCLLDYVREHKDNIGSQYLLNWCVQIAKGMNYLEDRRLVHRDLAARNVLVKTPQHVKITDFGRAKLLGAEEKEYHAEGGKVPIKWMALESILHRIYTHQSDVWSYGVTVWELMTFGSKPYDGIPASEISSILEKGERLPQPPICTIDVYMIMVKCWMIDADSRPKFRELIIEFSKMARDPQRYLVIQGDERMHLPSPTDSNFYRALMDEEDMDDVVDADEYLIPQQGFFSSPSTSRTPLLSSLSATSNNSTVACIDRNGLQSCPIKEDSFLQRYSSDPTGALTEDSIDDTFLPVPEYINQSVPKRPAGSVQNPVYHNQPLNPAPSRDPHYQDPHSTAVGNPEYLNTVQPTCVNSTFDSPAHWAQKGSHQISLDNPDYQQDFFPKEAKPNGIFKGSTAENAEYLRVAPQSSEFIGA

Chain of pEGFR (Tyr1068) in PC-9 cells (Ex19Del) (P00533 other isoform, or with tags, fused parts or gaps del 746-750): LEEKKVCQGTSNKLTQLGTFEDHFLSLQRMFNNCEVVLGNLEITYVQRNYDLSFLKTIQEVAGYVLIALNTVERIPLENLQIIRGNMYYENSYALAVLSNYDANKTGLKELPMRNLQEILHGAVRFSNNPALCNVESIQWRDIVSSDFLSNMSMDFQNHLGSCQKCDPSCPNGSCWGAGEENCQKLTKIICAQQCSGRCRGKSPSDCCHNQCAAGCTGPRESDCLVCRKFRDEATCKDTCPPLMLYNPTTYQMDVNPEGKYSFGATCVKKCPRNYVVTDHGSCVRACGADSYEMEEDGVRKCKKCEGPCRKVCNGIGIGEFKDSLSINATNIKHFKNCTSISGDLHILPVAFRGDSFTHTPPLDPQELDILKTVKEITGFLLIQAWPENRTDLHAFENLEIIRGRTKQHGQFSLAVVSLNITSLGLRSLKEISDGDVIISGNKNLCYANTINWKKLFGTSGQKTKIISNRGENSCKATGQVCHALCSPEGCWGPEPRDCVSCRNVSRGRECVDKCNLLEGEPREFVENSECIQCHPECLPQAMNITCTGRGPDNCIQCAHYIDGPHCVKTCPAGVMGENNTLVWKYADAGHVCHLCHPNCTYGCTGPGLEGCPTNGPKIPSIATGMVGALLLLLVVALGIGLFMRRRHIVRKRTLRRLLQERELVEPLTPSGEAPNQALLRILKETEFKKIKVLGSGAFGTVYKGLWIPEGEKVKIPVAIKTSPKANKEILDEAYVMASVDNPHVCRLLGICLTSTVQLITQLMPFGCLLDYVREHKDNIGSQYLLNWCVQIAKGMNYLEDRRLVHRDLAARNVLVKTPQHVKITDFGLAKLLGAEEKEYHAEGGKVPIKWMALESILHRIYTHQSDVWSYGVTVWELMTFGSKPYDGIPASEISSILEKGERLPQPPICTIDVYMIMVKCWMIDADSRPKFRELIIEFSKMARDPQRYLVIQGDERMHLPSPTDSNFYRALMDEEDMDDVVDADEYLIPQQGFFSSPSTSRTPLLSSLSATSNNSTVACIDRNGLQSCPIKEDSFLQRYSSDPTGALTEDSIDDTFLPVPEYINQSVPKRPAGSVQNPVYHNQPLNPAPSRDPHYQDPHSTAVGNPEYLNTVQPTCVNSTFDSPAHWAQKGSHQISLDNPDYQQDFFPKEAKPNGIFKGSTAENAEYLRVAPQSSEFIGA
Chain of EGFR (d746-750) (P00533 other isoform, or with tags, fused parts or gaps del 1-694/del 746-750 limits assumed): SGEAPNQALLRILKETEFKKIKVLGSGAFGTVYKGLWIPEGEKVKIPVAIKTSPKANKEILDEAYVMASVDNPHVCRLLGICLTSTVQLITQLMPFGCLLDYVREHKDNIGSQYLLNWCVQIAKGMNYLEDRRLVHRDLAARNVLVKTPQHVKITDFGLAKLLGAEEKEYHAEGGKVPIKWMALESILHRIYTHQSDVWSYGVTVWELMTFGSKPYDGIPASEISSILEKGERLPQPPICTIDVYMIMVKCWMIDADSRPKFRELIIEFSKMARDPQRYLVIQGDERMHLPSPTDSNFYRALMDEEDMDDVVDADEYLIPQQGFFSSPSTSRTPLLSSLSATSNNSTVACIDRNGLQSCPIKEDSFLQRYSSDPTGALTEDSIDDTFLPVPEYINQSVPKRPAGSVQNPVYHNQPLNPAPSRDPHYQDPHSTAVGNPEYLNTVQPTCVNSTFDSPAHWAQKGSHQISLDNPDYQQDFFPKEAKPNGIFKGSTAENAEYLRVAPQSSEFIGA

Structure (SMILES)	IC50 [1] [nM]	IC50 [2] [nM]	IC50 [3] [nM]
COc1cc2ncnc(-c3cn(C)nc3-c3ccc(F)cc3F)c2nc1NC(=O)[C@]12C[C@H]1CN(C)C2 (single isomer, unassigned) [Example 424, (1R,5R)—N-(4-(3-(2,4-difluorophenyl)-1-methyl-1H-pyrazol-4-yl)-7-methoxypyrido[3,2-d]pyrimidin-6-yl)-3-methyl-3-azabicyclo[3.1.0]hexane-1-carboxamide or (1S,5S)—N-(4-(3-(2,4-difluorophenyl)-1-methyl-1H-pyrazol-4-yl)-7-methoxypyrido[3,2-d]pyrimidin-6-yl)-3-methyl-3-azabicyclo[3.1.0]hexane-1-carboxamide]	1.2	1.5	2.3
COc1cc2ncnc(-c3cn(CC(F)F)nc3-c3ccccc3)c2cc1NC(=O)[C@]12COC[C@H]1C2 [Example 275, (1S,5S)—N-(4-(1-(2,2-difluoroethyl)-3-phenyl-1H-pyrazol-4-yl)-7-methoxyquinazolin-6-yl)-3-oxabicyclo[3.1.0]hexane-1-carboxamide]	1.3	1.9	1.9
COc1cc2ncnc(-c3cn(C)nc3-c3ccc(F)cc3)c2cc1NC(=O)C1CC(F)(F)C1 [Example 212, 3,3-difluoro-N-(4-(3-(4-fluorophenyl)-1-methyl-1H-pyrazol-4-yl)-7-methoxyquinazolin-6-yl)cyclobutane-1-carboxamide]	0.2	1	0.4
CN1C[C@H]2C[C@@]2(C(=O)Nc2nc3c(-c4cn(C)nc4-c4ccccc4)ncnc3cc2OC2CC2)C1 [Example 460, (1S,5S)—N-[7-cyclopropoxy-4-(1-methyl-3-phenyl-1H-pyrazol-4-yl)pyrido[3,2-d]pyrimidin-6-yl]-3-methyl-3-azabicyclo[3.1.0]hexane-1-carboxamide]	1.5	3.2	5.7
COc1cc2ncnc(-c3cn(CCO)nc3-c3ccccc3)c2nc1NC(=O)c1cnn(C(F)(F)F)c1 [Example 415, N-(4-(1-(2-hydroxyethyl)-3-phenyl-1H-pyrazol-4-yl)-7-methoxypyrido[3,2-d]pyrimidin-6-yl)-1-(trifluoromethyl)-1H-pyrazole-4-carboxamide]	1.5	7.8	3
COc1cc2ncnc(-c3cn(C)nc3-c3ccccc3)c2cc1NC(=O)[C@H]1C[C@H]1C [Example 282, (1S,2R)—N-(7-methoxy-4-(1-methyl-3-phenyl-1H-pyrazol-4-yl)quinazolin-6-yl)-2-methylcyclopropane-1-carboxamide]	1.6	0.7	2.2
COc1cc2ncnc(-c3cn(C)nc3-c3ccccc3)c2cc1NC(=O)c1cnc(C2CC2)s1 [Example 209, 2-cyclopropyl-N-(7-methoxy-4-(1-methyl-3-phenyl-1H-pyrazol-4-yl)quinazolin-6-yl)thiazole-5-carboxamide]	0.8	0.9	1.5
COc1cc2ncnc(-c3cn(C)nc3-c3c(F)cccc3F)c2cc1NC(=O)[C@@]12C[C@@H]1CN(C)C2 [Example 292, (1S,5S)—N-(4-(3-(2,6-difluorophenyl)-1-methyl-1H-pyrazol-4-yl)-7-methoxyquinazolin-6-yl)-3-methyl-3-azabicyclo[3.1.0]hexane-1-carboxamide]	3.2	9.6	145
COc1cc2ncnc(-c3cn(C)nc3-c3ccccc3)c2cc1NC(=O)c1ccncc1 [Example 351, N-(7-methoxy-4-(1-methyl-3-phenyl-1H-pyrazol-4-yl)quinazolin-6-yl)isonicotinamide]	1.7	4.6	3.1
COc1cc2ncnc(-c3cn(C)nc3-c3ccccc3F)c2nc1NC(=O)C1(C(F)(F)F)CC1 [Example 317, N-(4-(3-(2-fluorophenyl)-1-methyl-1H-pyrazol-4-yl)-7-methoxypyrido[3,2-d]pyrimidin-6-yl)-1-(trifluoromethyl)cyclopropane-1-carboxamide]	1.2	1.5	2.7
COc1cc2ncnc(-c3cn(C)nc3-c3ccccc3)c2nc1-c1ccc2c(c1)CN(C)C2=O [Example 153, 5-(7-methoxy-4-(1-methyl-3-phenyl-1H-pyrazol-4-yl)pyrido[3,2-d]pyrimidin-6-yl)-2-methylisoindolin-1-one]	0.5	0.9	1
CCOc1cc2ncnc(-c3cn(C)nc3-c3ccccc3)c2cc1N1CCOCC1 [Example 163, 4-(7-ethoxy-4-(1-methyl-3-phenyl-1H-pyrazol-4-yl)quinazolin-6-yl)morpholine]	1.4	5.5	3.6
CCOc1cc2ncnc(-c3cn(C)nc3-c3ccccc3)c2cc1NC(=O)c1cnn(CC)c1 [Example 298, N-(7-ethoxy-4-(1-methyl-3-phenyl-1H-pyrazol-4-yl)quinazolin-6-yl)-1-ethyl-1H-pyrazole-4-carboxamide]	0.9	1	1.6
COc1cc2ncnc(-c3cn(C)nc3-c3ccccc3)c2cc1OC(=O)N1CCN2CCCC2C1 (stereo in doubt) [Example 85, 7-methoxy-4-(1-methyl-3-phenyl-1H-pyrazol-4-yl)quinazolin-6-yl (R)-hexahydropyrrolo[1,2-a]pyrazine-2(1H)-carboxylate]	2.7	13.3	3.9
CCn1ncc(-c2ncnc3cc(-c4cnn(C)c4)ccc23)c1-c1ccccc1 [Example 495]	2.3	15.3	1.2
COc1cc2ncnc(-c3cn(C)nc3-c3ccccc3)c2cc1CO [Example 119, (7-methoxy-4-(1-methyl-3-phenyl-1H-pyrazol-4-yl)quinazolin-6-yl)methanol]	2.1	13.6	3.9
COc1cc2ncnc(-c3cn(C)nc3-c3ccccc3)c2nc1NC(=O)C1(F)CCN(C)C1 (stereo not drawn) [Example 433, 3-fluoro-N-(7-methoxy-4-(1-methyl-3-phenyl-1H-pyrazol-4-yl)pyrido[3,2-d]pyrimidin-6-yl)-1-methylpyrrolidine-3-carboxamide]	1.6	10.5	24.9
COc1cc2ncnc(-c3cn(C)nc3-c3ccccc3)c2nc1NC(=O)[C@@]12CN(C)C[C@@H]1C2(F)F (single isomer, unassigned) [Example 417, (1S,5R)-6,6-difluoro-N-(7-methoxy-4-(1-methyl-3-phenyl-1H-pyrazol-4-yl)pyrido[3,2-d]pyrimidin-6-yl)-3-methyl-3-azabicyclo[3.1.0]hexane-1-carboxamide or (1R,5S)-6,6-difluoro-N-(7-methoxy-4-(1-methyl-3-phenyl-1H-pyrazol-4-yl)pyrido[3,2-d]pyrimidin-6-yl)-3-methyl-3-azabicyclo[3.1.0]hexane-1-carboxamide]	0.8	0.9	1.5
COc1cc2ncnc(-c3cn(C)nc3-c3ccccc3)c2cc1NC(=O)c1ccc(F)cn1 [Example 324, 5-fluoro-N-(7-methoxy-4-(1-methyl-3-phenyl-1H-pyrazol-4-yl)quinazolin-6-yl)picolinamide]	2	2.6	3.8
